{"source": "paper doi:10.1101/2025.02.19.639194v1", "about": "“Bioinformatics analysis identifies sequence determinants of enzymatic activity for the PHARC associated lipase ABHD12” (biorxiv, 2025)", "molecular_target": "T1, CG15111 (Drosophila melanogaster, UniProt A1ZBH2)", "T1 construct": "gene Dmel\\CG15111; full-length from adult fly cDNA, C-terminal FLAG tag, pRmHa3 vector, membrane fraction of transfected S2 cells", "T1 sequence (A1ZBH2 1-393)": "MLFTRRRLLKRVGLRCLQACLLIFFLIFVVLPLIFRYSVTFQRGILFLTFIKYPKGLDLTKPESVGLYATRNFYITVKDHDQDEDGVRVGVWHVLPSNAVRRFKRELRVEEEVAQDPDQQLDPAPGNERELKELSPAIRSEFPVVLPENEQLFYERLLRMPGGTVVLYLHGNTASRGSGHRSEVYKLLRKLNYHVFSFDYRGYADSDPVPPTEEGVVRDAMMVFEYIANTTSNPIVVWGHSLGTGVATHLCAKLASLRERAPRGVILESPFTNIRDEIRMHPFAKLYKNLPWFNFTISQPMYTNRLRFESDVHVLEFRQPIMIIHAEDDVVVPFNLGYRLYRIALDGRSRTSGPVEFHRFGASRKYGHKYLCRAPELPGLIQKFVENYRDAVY", "test": "LC-MS lyso-PS lipase assay, release of C17:[…] FFA", "type": "biochemical", "conditions": "100 uM substrate, 20 ug membrane fraction of S2 cells", "data": [{"smiles": "CCCCCC/C=C\\CCCCCCCCC(=O)OC[C@@H](O)COP(=O)(O)OC[C@H](N)C(=O)O", "note": "[C17:1 lyso-PS]", "values": [{"measurement": "LC-MS lyso-PS lipase assay, release of C17:1 FFA", "result": "WT CG15111 had robust lyso-PS lipase activity"}]}]}
